In test [1] the target is T1, CD73 (Homo sapiens (Human), UniProt P21589). Format: biochemical. Conditions: 1 mM NaH2PO4 in enzyme buffer, CD73 0.3 nM, AMP 15 uM.
Test [2] has as its target T1, CD73. The test can be described thus: MDA-MB-231 Cell Based CD73 Activity Assay (DMEM). Conditions: MDA-MB-231-GFP cells, DMEM medium with 10% human plasma, 200 uM AMP. The method, then:
MDA-MB-231 Cell Based CD73 Activity Assay (DMEM) MDA-MB-231-GFP cells were seeded in 384-well plates (Greiner 781946) at a density of 3000 cells per well in 50 μL of DMEM medium with 10% HP (human plasma). Cells were plated into assay plate with compounds pre-spotted, for an overnight compound treatment. 50 uL of 400 uM AMP (final concentration will be 200 uM) was added using Bio-tek dispenser. Plates were incubated for 100 mins. […] The samples were analyzed using Rapid fire.

The results in this text go back to patent US20240043427A1 (Gilead Sciences, Inc., priority 2020, published 2024).

T1 sequence (P21589 27-574): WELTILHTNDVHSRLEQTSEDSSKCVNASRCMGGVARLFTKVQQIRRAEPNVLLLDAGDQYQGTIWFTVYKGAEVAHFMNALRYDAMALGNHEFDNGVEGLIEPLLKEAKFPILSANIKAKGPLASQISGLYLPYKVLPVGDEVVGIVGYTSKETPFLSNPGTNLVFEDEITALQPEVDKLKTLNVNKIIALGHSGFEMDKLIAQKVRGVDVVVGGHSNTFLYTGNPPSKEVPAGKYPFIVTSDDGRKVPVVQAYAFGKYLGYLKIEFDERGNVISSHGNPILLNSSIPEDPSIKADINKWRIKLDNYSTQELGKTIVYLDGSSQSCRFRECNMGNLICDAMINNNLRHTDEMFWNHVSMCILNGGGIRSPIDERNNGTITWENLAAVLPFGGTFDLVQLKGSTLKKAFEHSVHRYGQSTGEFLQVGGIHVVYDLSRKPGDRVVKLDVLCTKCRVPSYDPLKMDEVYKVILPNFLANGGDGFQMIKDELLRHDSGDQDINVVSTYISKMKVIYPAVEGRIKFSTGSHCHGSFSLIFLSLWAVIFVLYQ

With `O=c1[nH]cc(-c2cc([C@H]3C[C@@H]3c3ccc(OCC(F)F)cc3)c3nccn3n2)c(=O)[nH]1` (racemic) [Example 574, 5-(8-((1S,2S)-2-(4-(2,2-difluoroethoxy)phenyl)cyclopropyl)imidazo[1,2-b]pyridazin-6-yl)pyrimidine-2,4(1H,3H)-dione], 0.73 nM corresponded to half-maximal inhibition against CD73 [1] (IC50). On CD73 [2], the EC50 (as a rule, the concentration that produces a half-maximal response) was found to be 17.3 nM.
Take `O=c1[nH]cc(-c2cc([C@H]3C[C@@H]3c3ccc(Cl)cn3)c3nccn3n2)c(=O)[nH]1` (racemic) [Example 576, 5-(8-((1S,2S)-2-(5-chloropyridin-2-yl)cyclopropyl)imidazo[1,2-b]pyridazin-6-yl)pyrimidine-2,4(1H,3H)-dione]: at CD73 [1], half-maximal inhibition (IC50) was put at 2.05 nM. The same compound had a concentration giving a half-maximal response (EC50) at CD73 [2] of 6.9 nM.
Take `Cc1nc2ccc([C@H]3C[C@@H]3c3cc(-c4c[nH]c(=O)[nH]c4=O)nn4c(F)cnc34)cc2s1` (racemic) [Example 580, 5-(3-fluoro-8-((1S,2S)-2-(2-methylbenzo[d]thiazol-6-yl)cyclopropyl)imidazo[1,2-b]pyridazin-6-yl)pyrimidine-2,4(1H,3H)-dione]: the IC50 (as a rule, the concentration that gives 50% inhibition) at CD73 [1] came out at 1.63 nM. The half-maximal effective concentration (EC50) at CD73 [2] amounted to 5.79 nM.
The corresponding values for `O=c1[nH]cc(-c2cc([C@H]3C[C@@H]3c3ccc4ncsc4c3)c3ncc(F)n3n2)c(=O)[nH]1` (racemic) [Example 581, 5-(8-((1S,2S)-2-(benzo[d]thiazol-6-yl)cyclopropyl)-3-fluoroimidazo[1,2-b]pyridazin-6-yl)pyrimidine-2,4(1H,3H)-dione] are 0.89 nM and 2.16 nM.
On CD73 [1], `O=c1[nH]cc(-c2cc([C@H]3C[C@@H]3c3ncc(C(F)(F)F)cc3F)c3nccn3n2)c(=O)[nH]1` (racemic) [Example 582, 5-(8-((1S,2S)-2-(3-fluoro-5-(trifluoromethyl)pyridin-2-yl)cyclopropyl)imidazo[1,2-b]pyridazin-6-yl)pyrimidine-2,4(1H,3H)-dione] came in with an IC50 of 4.96 nM. This compound registered an EC50 on CD73 [2] of 15.6 nM.
Consider `O=c1[nH]cc(-c2cc([C@H]3C[C@@H]3c3ncc(Cl)cc3F)c3ncc(F)n3n2)c(=O)[nH]1` (racemic) [Example 583, 5-(8-((1S,2S)-2-(5-chloro-3-fluoropyridin-2-yl)cyclopropyl)-3-fluoroimidazo[1,2-b]pyridazin-6-yl)pyrimidine-2,4(1H,3H)-dione], for which it took 2.63 nM to reach half-maximal inhibition against CD73 [1] (IC50). In addition, the EC50 on CD73 [2] came to 9.53 nM.
Consider `O=c1[nH]cc(-c2cc([C@H]3C[C@@H]3c3ccc4nc(C(F)F)sc4c3)c3nccn3n2)c(=O)[nH]1` (racemic) [Example 589, 5-(8-((1S,2S)-2-(2-(difluoromethyl)benzo[d]thiazol-6-yl)cyclopropyl)imidazo[1,2-b]pyridazin-6-yl)pyrimidine-2,4(1H,3H)-dione], for which, at CD73 [1], 0.63 nM corresponded to half-maximal inhibition (IC50). The same compound came in with an EC50 on CD73 [2] of 2.56 nM.
Taken in the same sequence, the figures for `O=c1[nH]cc(-c2cc([C@H]3C[C@@H]3c3cc4c(cn3)cnn4CC(F)(F)F)c3nccn3n2)c(=O)[nH]1` (racemic) [Example 591, 5-(8-((1S,2S)-2-(1-(2,2,2-trifluoroethyl)-1H-pyrazolo[4,3-c]pyridin-6-yl)cyclopropyl)imidazo[1,2-b]pyridazin-6-yl)pyrimidine-2,4(1H,3H)-dione] were 0.72 nM and 0.17 nM.
Compound `O=c1[nH]cc(-c2cc([C@H]3C[C@@H]3c3cc(OCC4CC4(F)F)c(Cl)cn3)c3nccn3n2)c(=O)[nH]1` (mixture of isomers) [Example 597, 5-(8-((1S,2S)-2-(5-chloro-4-((2,2-difluorocyclopropyl)methoxy)pyridin-2-yl)cyclopropyl)imidazo[1,2-b]pyridazin-6-yl)pyrimidine-2,4(1H,3H)-dione] registered an IC50 on CD73 [1] of 2.79 nM. This compound also displayed an EC50 at CD73 [2] of 5.93 nM.
Taken in the same sequence, the figures for `O=c1[nH]cc(-c2cc([C@H]3C[C@@H]3c3ccc4ccc(=O)n(CC(F)(F)F)c4c3)c3nccn3n2)c(=O)[nH]1` (racemic) [Example 598, 5-(8-((1S,2S)-2-(2-oxo-1-(2,2,2-trifluoroethyl)-1,2-dihydroquinolin-7-yl)cyclopropyl)imidazo[1,2-b]pyridazin-6-yl)pyrimidine-2,4(1H,3H)-dione] were 1.11 nM and 0.11 nM.
Taken in the same sequence, the figures for `O=c1[nH]cc(-c2cc([C@H]3C[C@@H]3c3ccc4ccc(OCC(F)(F)F)nc4c3)c3nccn3n2)c(=O)[nH]1` (racemic) [Example 599, 5-(8-((1S,2S)-2-(2-(2,2,2-trifluoroethoxy)quinolin-7-yl)cyclopropyl)imidazo[1,2-b]pyridazin-6-yl)pyrimidine-2,4(1H,3H)-dione] were 2.38 nM and 41.2 nM.
On CD73 [1], `O=c1[nH]cc(-c2cc([C@H]3C[C@@H]3c3cc(OCC(F)(F)F)c(Cl)cn3)c3nccn3n2)c(=O)[nH]1` (racemic) [Example 600, 5-(8-((1S,2S)-2-(5-chloro-4-(2,2,2-trifluoroethoxy)pyridin-2-yl)cyclopropyl)imidazo[1,2-b]pyridazin-6-yl)pyrimidine-2,4(1H,3H)-dione] returned an IC50 of 2.59 nM. This compound showed an EC50 on CD73 [2] of 6.64 nM.
Take `O=c1[nH]cc(-c2cc([C@H]3C[C@@H]3c3ccc4cnn(CC(F)(F)F)c4n3)c3nccn3n2)c(=O)[nH]1` (racemic) [Example 601, 5-(8-((1S,2S)-2-(1-(2,2,2-trifluoroethyl)-1H-pyrazolo[3,4-b]pyridin-6-yl)cyclopropyl)imidazo[1,2-b]pyridazin-6-yl)pyrimidine-2,4(1H,3H)-dione]: the IC50 against CD73 [1] came out at 1.16 nM. The compound also displayed an EC50 on CD73 [2] of 0.17 nM.
The corresponding values for `O=c1[nH]cc(-c2cc([C@H]3C[C@@H]3c3ccc4cnn(CC(F)(F)F)c4n3)c3ncc(F)n3n2)c(=O)[nH]1` (racemic) [Example 602, 5-(3-fluoro-8-((1S,2S)-2-(1-(2,2,2-trifluoroethyl)-1H-pyrazolo[3,4-b]pyridin-6-yl)cyclopropyl)imidazo[1,2-b]pyridazin-6-yl)pyrimidine-2,4(1H,3H)-dione] are 0.93 nM and 0.53 nM.
Taken in the same sequence, the figures for `O=c1[nH]cc(-c2cc([C@H]3C[C@@H]3c3ccc4nc(C(F)(F)F)n(CC(F)(F)F)c4c3)c3nccn3n2)c(=O)[nH]1` (racemic) [Example 603, 5-(8-((1S,2S)-2-(1-(2,2,2-trifluoroethyl)-2-(trifluoromethyl)-1H-benzo[d]imidazol-6-yl)cyclopropyl)imidazo[1,2-b]pyridazin-6-yl)pyrimidine-2,4(1H,3H)-dione] were 1.94 nM and 0.09 nM.
`O=c1[nH]cc(-c2cc([C@H]3C[C@@H]3c3cc4c(cn3)cnn4CC(F)(F)F)c3ncc(F)n3n2)c(=O)[nH]1` (racemic) [Example 604, 5-(3-fluoro-8-((1S,2S)-2-(1-(2,2,2-trifluoroethyl)-1H-pyrazolo[4,3-c]pyridin-6-yl)cyclopropyl)imidazo[1,2-b]pyridazin-6-yl)pyrimidine-2,4(1H,3H)-dione] displayed an IC50 against CD73 [1] of 0.83 nM. Besides, the EC50 at CD73 [2] came to 0.12 nM.
Taken in the same sequence, the figures for `O=c1[nH]cc(-c2cc([C@H]3C[C@@H]3c3ccc4cnc(CC(F)(F)F)n4c3)c3nccn3n2)c(=O)[nH]1` (racemic) [Example 605, 5-(8-((1S,2S)-2-(3-(2,2,2-trifluoroethyl)imidazo[1,5-a]pyridin-6-yl)cyclopropyl)imidazo[1,2-b]pyridazin-6-yl)pyrimidine-2,4(1H,3H)-dione] were 1.26 nM and 0.12 nM.
`O=c1[nH]cc(-c2cc([C@H]3C[C@@H]3c3cc4c(cn3)c(C(F)(F)F)nn4CC(F)(F)F)c3nccn3n2)c(=O)[nH]1` (racemic) [Example 608, 5-(8-((1S,2S)-2-(1-(2,2,2-trifluoroethyl)-3-(trifluoromethyl)-1H-pyrazolo[4,3-c]pyridin-6-yl)cyclopropyl)imidazo[1,2-b]pyridazin-6-yl)pyrimidine-2,4(1H,3H)-dione] had a concentration for half-maximal inhibition (IC50) at CD73 [1] of 2.36 nM. On CD73 [2], this compound returned an EC50 of 0.48 nM.
The corresponding values for `O=c1[nH]cc(-c2cc([C@H]3C[C@@H]3c3ccc4c(C(F)(F)F)nc(CC(F)(F)F)n4c3)c3nccn3n2)c(=O)[nH]1` (racemic) [Example 609, 5-(8-((1S,2S)-2-(3-(2,2,2-trifluoroethyl)-1-(trifluoromethyl)imidazo[1,5-a]pyridin-6-yl)cyclopropyl)imidazo[1,2-b]pyridazin-6-yl)pyrimidine-2,4(1H,3H)-dione] are 2.36 nM and 0.39 nM.
The corresponding values for `O=c1[nH]cc(-c2cc([C@H]3C[C@@H]3c3ncc4cnn(CC(F)(F)F)c4c3F)c3nccn3n2)c(=O)[nH]1` (racemic) [Example 615, 5-(8-((1S,2S)-2-(7-fluoro-1-(2,2,2-trifluoroethyl)-1H-pyrazolo[4,3-c]pyridin-6-yl)cyclopropyl)imidazo[1,2-b]pyridazin-6-yl)pyrimidine-2,4(1H,3H)-dione] are 1.54 nM and 0.28 nM.
At CD73 [1], `O=c1[nH]cc(-c2cc([C@H]3C[C@@H]3c3ccc4nc5n(c4c3)C(C(F)(F)F)CC5)c3nccn3n2)c(=O)[nH]1` (mixture of isomers) [Example 616, 5-(8-((1S,2S)-2-(1-(trifluoromethyl)-2,3-dihydro-1H-benzo[d]pyrrolo[1,2-a]imidazol-7-yl)cyclopropyl)imidazo[1,2-b]pyridazin-6-yl)pyrimidine-2,4(1H,3H)-dione] returned an IC50 of 2.3 nM. On CD73 [2], this compound showed a 50% effective concentration (EC50) of 0.2 nM.
Taken in the same sequence, the figures for `O=c1[nH]cc(-c2cc([C@H]3C[C@@H]3c3cnc4cnn(CC(F)(F)F)c4c3)c3ncc(F)n3n2)c(=O)[nH]1` (racemic) [Example 619, 5-(3-fluoro-8-((1S,2S)-2-(1-(2,2,2-trifluoroethyl)-1H-pyrazolo[4,3-b]pyridin-6-yl)cyclopropyl)imidazo[1,2-b]pyridazin-6-yl)pyrimidine-2,4(1H,3H)-dione] were 0.95 nM and 0.14 nM.
